Columns and labels:
[1] = test system: HIV; conditions: cited from earlier work
[2] = test system: macrophages in culture; test: Proliferation of cultured macrophages (3H-thymidine incorporation); assay type: cell-based, human; conditions: for inhibition of proliferation of macrophages stimulated with the combination IL-3/GM-CSF / inhibition of proliferation of macrophages stimulated with IL-3: 1 μg/ml; for inhibition of proliferation of macrophages stimulated with the combination IL-3/GM-CSF: hr IL-3 and hr GM-CSF stimulated; for inhibition of proliferation of macrophages stimulated with IL-3: hr IL-3 stimulated, compound added a day before 3H-thymidine; for inhibition of spontaneous proliferation: without stimulation
Method: For that, monocytes collected from a donor are cultured for 5 days either a) without stimulation (so as to evaluate their spontaneous proliferation level) or b) in the presence of human recombinant interleukin-3 (hr IL-3) or c) in the presence of both hr IL-3 and hr GM-CSF human recombinant granulocyte-macrophage colony stimulating factor. These two treatments make it possible to obtain a high level of proliferation. The compounds of the invention are added to the culture medium a day before the addition of tritiated thymidine (^3H-thymidine). The dividing cells incorporate this thymidine. The cells (which have differentiated into macrophages during the duration of the culture) are recovered and washed, and the proliferation level is evaluated by measuring, in a beta counter, the quantity of ^3H incorporated according to conventional methods as described in Blood, Vol. 76, pages 1490-1493, 1990.

[3] = test system: HIV (HTLV III Ba-L); test: HIV replication in primary cultures of human monocytes (viral protein P24 in supernatants, day 7); assay type: cell-based
Method: Some cultures were treated with different concentrations of the compounds either 1 day before, or the same day, or 1 day after inoculation with HIV. The replication of the virus was evaluated on day 7 by measurement of the quantity of viral protein P24 in the supernatants as described in Blood, Vol. 76, page 1490-1493, 1990.

[4] = Clinical trials: tolerance in healthy volunteers and cancer subjects; assay type: in vivo, man
[5] = test system: guinea pig macrophages; conditions: cited from earlier work
[6] = test system: HIV; conditions: in vitro, 1000 μg/ml; cited from earlier work

CCCCCCCCCCCCCCCC(=O)OC[C@H](COP(=O)(O)OCCNC(=O)[C@H](C)NC(=O)CC[C@@H](NC(=O)[C@H](C)NC(=O)[C@@H](C)O[C@@H]([C@H](O)[C@H](O)CO)[C@H](C=O)NC(C)=O)C(N)=O)OC(=O)CCCCCCCCCCCCCCC [MTP-PE]
activity on viral replication ([1]; compound added a day before or 4 days after): minimal | total suppression of viral replication ([1]; free form or incorporated into liposomes): not capable | reduction in viral replication ([1]; free form, added repeatedly before and after HIV infection): only a partial reduction in viral replication

CCCCOC(=O)[C@@H](CCC(N)=O)NC(=O)[C@H](C)NC(=O)[C@@H](C)O[C@H]1[C@H](O)[C@@H](CO)OC(O)[C@@H]1NC(C)=O (stereo partly drawn) [Murabutide, Nac-Mur-L-Ala-DGln OnC4H9]
inhibition of proliferation of macrophages stimulated with the combination IL-3/GM-CSF [2]: inhibiting the proliferation | inhibition of proliferation of macrophages stimulated with IL-3 [2]: inhibiting the proliferation | inhibition of spontaneous proliferation ([2]; 10 μg/ml): inhibition of spontaneous proliferation was observed | inhibition of viral replication ([3]; 10 to 50 μg/ml, treatment on day -1, day 0 or day +1 relative to infection, P24 on day 7): completely inhibits viral replication | side effects in man [4]: free of side effects | tolerance in man [4]: very good tolerance

COC(=O)[C@@H](CCC(N)=O)NC(=O)[C@H](C)NC(=O)[C@@H](C)O[C@H]1[C@H](O)[C@@H](CO)OC(O)[C@@H]1NC(C)=O (stereo partly drawn) [Murametide, Nac-Mur-L-Ala-DGln OMe]
inhibition of proliferation of macrophages stimulated with the combination IL-3/GM-CSF [2]: inhibiting the proliferation | inhibition of proliferation of macrophages stimulated with IL-3 [2]: inhibiting the proliferation | inhibition of spontaneous proliferation ([2]; 10 μg/ml): inhibition of spontaneous proliferation was observed | inhibition of spontaneous proliferation ([2]; 50 μg/ml): inhibition of spontaneous proliferation was observed | suppression of viral replication ([3]; 50 μg/ml, regardless of the time of treatment): 100% | suppression of viral replication ([3]; different concentrations, treatment 1 day before, same day or 1 day after inoculation): highly significant suppression of viral replication | side effects in man [4]: free of side effects | tolerance in man [4]: very good tolerance

N-acetyl-muramyl-L-alanyl-D-Isoglutamine [MDP]
inhibition of the proliferation of guinea pig macrophages [5]: capable of inhibiting the proliferation | inhibition of the replication of HIV [6]: partially inhibiting the replication of HIV

Source: US20020010132A1, “COMPOSITIONS OF MURAMYL PEPTIDES INHIBITING THE REPLICATION OF HIV” (VACSYN S.A., priority 1994, published 2002)
